According to patent publication US20260022142A1, “MACROCYCLIC IMMUNOMODULATORS” (Bristol-Myers Squibb Company, priority 2022, published 2026):
Bridge positions count the residues as written; N and C are the ends. Square brackets hold non-standard residues; d marks the D form. Peptide text beside a SMILES is read from it. * marks the point of attachment. Tyr(3,5-F2) = N[C@@H](Cc1cc(F)c(O)c(F)c1)C(=O)O; Phe(4-COOH) = N[C@@H](Cc1ccc(C(=O)O)cc1)C(=O)O; Bip = N[C@@H](Cc1ccc(-c2ccccc2)cc1)C(=O)O; Phe(4-CN) = N#Cc1ccc(C[C@H](N)C(=O)O)cc1; Phe(3-Me) = Cc1cccc(C[C@H](N)C(=O)O)c1; Phe(2-F) = N[C@@H](Cc1ccccc1F)C(=O)O; Val(3-OH) = CC(C)(O)[C@H](N)C(=O)O; 4Pal = N[C@@H](Cc1ccncc1)C(=O)O; 2Thi = N[C@@H](Cc1cccs1)C(=O)O; Cha = N[C@@H](CC1CCCCC1)C(=O)O; Carboxymethyl = O=C(O)C*; Orn = NCCC[C@H](N)C(=O)O; Aun = NCCCCCCCCCCC(=O)O; Dab = NCC[C@H](N)C(=O)O; Nva = CCC[C@H](N)C(=O)O; Ac3c = NC1(C(=O)O)CC1

These compounds were tested against T1, PD-1/PD-L1 interaction (PE-labeled human PD-L1-Ig binding to Jurkat cell line over-expressing human PD-1) (Homo sapiens, UniProt Q15116) (assay: Jurkat-PD-1 Cell Binding High-Content Screening Assay (CBA)). Conditions: Jurkat cell line over-expressing human PD-1; PE-labeled PD-L1-Ig 20 nM final; read-out: Jurkat hPD1-PDL1 IC50.
T1 construct: expressed in transfected cells; host or cells: Jurkat
T1 sequence (Q15116 25-288): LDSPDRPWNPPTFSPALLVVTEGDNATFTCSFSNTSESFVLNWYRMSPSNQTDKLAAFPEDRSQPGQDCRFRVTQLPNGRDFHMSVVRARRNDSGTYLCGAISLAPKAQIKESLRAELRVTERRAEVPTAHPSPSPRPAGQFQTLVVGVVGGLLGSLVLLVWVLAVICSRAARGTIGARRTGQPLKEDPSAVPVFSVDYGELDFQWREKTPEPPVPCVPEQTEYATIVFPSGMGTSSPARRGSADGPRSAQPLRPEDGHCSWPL
Type: cell-based
Summary of the method: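 Read-out is high-content imaging of cell-bound phycoerythrin-tagged PD-L1-Ig on fixed, Hoechst-counterstained Jurkat cells that over-express human PD-1. Compound exposure lasts 2 h at 37° C before the labeled ligand (20 nM final) is added for a further hour.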

In order of falling IC50:
1. Cc1cccc(C[C@@H]2NC(=O)[C@H](CC(=O)O)NC(=O)[C@H](Cc3ccc(C(=O)O)cc3)NC(=O)[C@H](Cc3ccncc3)NC(=O)CSC[C@@H](C(=O)N[C@@H](CCN)C(=O)NCCCCCCCCCCC(=O)O)NC(=O)[C@H](CO)NC(=O)[C@H](C(C)(C)O)NC(=O)[C@H](CC3CCCCC3)NC(=O)[C@H](CCN)NC(=O)[C@@H](CC(C)C)NC(=O)[C@H](CCCN)NC(=O)[C@H](Cc3ccc(OCC(=O)O)cc3)NC(=O)[C@H](Cc3ccc(-c4ccccc4)cc3)NC(=O)[C@H](Cc3ccc(OCC(=O)O)cc3)NC2=O)c1 [Compound 2177] ({CH2CO}-[4Pal][Phe(4-COOH)]D[Phe(3-Me)]Y(Carboxymethyl)[Bip]Y(Carboxymethyl)[Orn][dL][Dab][Cha][Val(3-OH)]SC[Dab][Aun]-OH; thioether N-14)  144 nM
2. Cc1cccc(C[C@@H]2NC(=O)[C@H](CC(=O)O)NC(=O)[C@H](Cc3ccc(OCC(=O)O)cc3)NC(=O)C3(CC3)NC(=O)CSC[C@@H](C(=O)N[C@@H](CCN)C(=O)NCCCCCCCCCCC(=O)O)NC(=O)[C@H](CO)NC(=O)[C@H](C(C)(C)O)NC(=O)[C@H](CC3CCCCC3)NC(=O)[C@H](CCN)NC(=O)[C@@H](CC(C)C)NC(=O)[C@H](CCCN)NC(=O)[C@H](Cc3ccc(OCC(=O)O)cc3)NC(=O)[C@H](Cc3ccc(-c4ccccc4)cc3)NC(=O)[C@H](Cc3ccc(OCC(=O)O)cc3)NC2=O)c1 [Compound 2180] ({CH2CO}-[Ac3c]Y(Carboxymethyl)D[Phe(3-Me)]Y(Carboxymethyl)[Bip]Y(Carboxymethyl)[Orn][dL][Dab][Cha][Val(3-OH)]SC[Dab][Aun]-OH; thioether N-14)  119 nM
3. Cc1cccc(C[C@@H]2NC(=O)[C@H](CC(=O)O)NC(=O)[C@H](Cc3ccc(C(=O)O)cc3)NC(=O)[C@H](Cc3cccs3)NC(=O)CSC[C@@H](C(=O)N[C@@H](CCN)C(=O)NCCCCCCCCCCC(=O)O)NC(=O)[C@H](CO)NC(=O)[C@H](C(C)(C)O)NC(=O)[C@H](CC3CCCCC3)NC(=O)[C@H](CCN)NC(=O)[C@@H](CC(C)C)NC(=O)[C@H](CCCN)NC(=O)[C@H](Cc3ccc(OCC(=O)O)cc3)NC(=O)[C@H](Cc3ccc(-c4ccccc4)cc3)NC(=O)[C@H](Cc3ccc(OCC(=O)O)cc3)NC2=O)c1 [Compound 2179] ({CH2CO}-[2Thi][Phe(4-COOH)]D[Phe(3-Me)]Y(Carboxymethyl)[Bip]Y(Carboxymethyl)[Orn][dL][Dab][Cha][Val(3-OH)]SC[Dab][Aun]-OH; thioether N-14)  22 nM
4. COc1ccc(C[C@@H]2NC(=O)CSC[C@@H](C(=O)N[C@@H](CCN)C(=O)NCCCCCCCCCCC(=O)O)NC(=O)[C@H](CO)NC(=O)[C@H](C(C)(C)O)NC(=O)[C@H](CC3CCCCC3)NC(=O)[C@H](CCN)NC(=O)[C@@H](CC(C)C)NC(=O)[C@H](CCCN)NC(=O)[C@H](Cc3ccc(OCC(=O)O)cc3)NC(=O)[C@H](Cc3ccc(-c4ccccc4)cc3)NC(=O)[C@H](Cc3ccc(OCC(=O)O)cc3)NC(=O)[C@H](Cc3cccc(C)c3)NC(=O)[C@H](CC(=O)O)NC(=O)[C@H](Cc3ccc(OCC(=O)O)cc3)NC2=O)cc1 [Compound 2181] ({CH2CO}-Y(Me)Y(Carboxymethyl)D[Phe(3-Me)]Y(Carboxymethyl)[Bip]Y(Carboxymethyl)[Orn][dL][Dab][Cha][Val(3-OH)]SC[Dab][Aun]-OH; thioether N-14)  17.7 nM
5. Cc1cccc(C[C@@H]2NC(=O)[C@H](CC(=O)O)NC(=O)[C@H](Cc3ccc(OCC(=O)O)cc3)NC(=O)[C@H](Cc3cccs3)NC(=O)CSC[C@@H](C(=O)N[C@@H](CCN)C(=O)NCCCCCCCCCCC(=O)O)NC(=O)[C@H](CO)NC(=O)[C@H](C(C)(C)O)NC(=O)[C@H](CC3CCCCC3)NC(=O)[C@H](CCN)NC(=O)[C@@H](CC(C)C)NC(=O)[C@H](CCCN)NC(=O)[C@H](Cc3ccc(OCC(=O)O)cc3)NC(=O)[C@H](Cc3ccc(-c4ccccc4)cc3)NC(=O)[C@H](Cc3ccc(OCC(=O)O)cc3)NC2=O)c1 [Compound 2182] ({CH2CO}-[2Thi]Y(Carboxymethyl)D[Phe(3-Me)]Y(Carboxymethyl)[Bip]Y(Carboxymethyl)[Orn][dL][Dab][Cha][Val(3-OH)]SC[Dab][Aun]-OH; thioether N-14)  15.6 nM
6. Cc1cccc(C[C@@H]2NC(=O)[C@H](CC(=O)O)NC(=O)[C@H](Cc3ccc(OCC(=O)O)cc3)NC(=O)[C@H](Cc3ccc(C#N)cc3)NC(=O)CSC[C@@H](C(=O)N[C@@H](CCN)C(=O)NCCCCCCCCCCC(=O)O)NC(=O)[C@H](CO)NC(=O)[C@H](C(C)(C)O)NC(=O)[C@H](CC3CCCCC3)NC(=O)[C@H](CCN)NC(=O)[C@@H](CC(C)C)NC(=O)[C@H](CCCN)NC(=O)[C@H](Cc3ccc(OCC(=O)O)cc3)NC(=O)[C@H](Cc3ccc(-c4ccccc4)cc3)NC(=O)[C@H](Cc3ccc(OCC(=O)O)cc3)NC2=O)c1 [Compound 2183] ({CH2CO}-[Phe(4-CN)]Y(Carboxymethyl)D[Phe(3-Me)]Y(Carboxymethyl)[Bip]Y(Carboxymethyl)[Orn][dL][Dab][Cha][Val(3-OH)]SC[Dab][Aun]-OH; thioether N-14)  13.3 nM
7. Cc1cccc(C[C@@H]2NC(=O)[C@H](CC(=O)O)NC(=O)[C@H](Cc3ccc(OCC(=O)O)cc3)NC(=O)[C@H](Cc3ccncc3)NC(=O)CSC[C@@H](C(=O)N[C@@H](CCN)C(=O)NCCCCCCCCCCC(=O)O)NC(=O)[C@H](CO)NC(=O)[C@H](C(C)(C)O)NC(=O)[C@H](CC3CCCCC3)NC(=O)[C@H](CCN)NC(=O)[C@@H](CC(C)C)NC(=O)[C@H](CCCN)NC(=O)[C@H](Cc3ccc(OCC(=O)O)cc3)NC(=O)[C@H](Cc3ccc(-c4ccccc4)cc3)NC(=O)[C@H](Cc3ccccc3F)NC2=O)c1 [Compound 2184] ({CH2CO}-[4Pal]Y(Carboxymethyl)D[Phe(3-Me)][Phe(2-F)][Bip]Y(Carboxymethyl)[Orn][dL][Dab][Cha][Val(3-OH)]SC[Dab][Aun]-OH; thioether N-14)  10.3 nM
8. Cc1cccc(C[C@@H]2NC(=O)[C@H](CC(=O)O)NC(=O)[C@H](Cc3ccc(OCC(=O)O)cc3)NC(=O)[C@H](Cc3ccncc3)NC(=O)CSC[C@@H](C(=O)N[C@@H](CCN)C(=O)NCCCCCCCCCCC(=O)O)NC(=O)[C@H](CO)NC(=O)[C@H](C(C)(C)O)NC(=O)[C@H](CC3CCCCC3)NC(=O)[C@H](CCN)NC(=O)[C@@H](CC(C)C)NC(=O)[C@H](CCCN)NC(=O)[C@H](Cc3ccc(OCC(=O)O)cc3)NC(=O)[C@H](Cc3ccc(-c4ccccc4)cc3)NC(=O)[C@H](Cc3cc(F)c(O)c(F)c3)NC2=O)c1 [Compound 2185] ({CH2CO}-[4Pal]Y(Carboxymethyl)D[Phe(3-Me)][Tyr(3,5-F2)][Bip]Y(Carboxymethyl)[Orn][dL][Dab][Cha][Val(3-OH)]SC[Dab][Aun]-OH; thioether N-14)  9.6 nM
9. CCC[C@@H]1NC(=O)CSC[C@@H](C(=O)N[C@@H](CCN)C(=O)NCCCCCCCCCCC(=O)O)NC(=O)[C@H](CO)NC(=O)[C@H](C(C)(C)O)NC(=O)[C@H](CC2CCCCC2)NC(=O)[C@H](CCN)NC(=O)[C@@H](CC(C)C)NC(=O)[C@H](CCCN)NC(=O)[C@H](Cc2ccc(OCC(=O)O)cc2)NC(=O)[C@H](Cc2ccc(-c3ccccc3)cc2)NC(=O)[C@H](Cc2ccc(OCC(=O)O)cc2)NC(=O)[C@H](Cc2cccc(C)c2)NC(=O)[C@H](CC(=O)O)NC(=O)[C@H](Cc2ccc(C(=O)O)cc2)NC1=O [Compound 2178] ({CH2CO}-[Nva][Phe(4-COOH)]D[Phe(3-Me)]Y(Carboxymethyl)[Bip]Y(Carboxymethyl)[Orn][dL][Dab][Cha][Val(3-OH)]SC[Dab][Aun]-OH; thioether N-14)  6.4 nM
